Data reported in US20240252456A1, “ORAL COMPOSITION, SKIN COSMETIC AND HAIR COSMETIC” (MARUZEN PHARMACEUTICALS CO., LTD., priority 2021, published 2024).

Columns and labels:
[1] = tested on: OCLN mRNA; test: Occludin (OCLN) mRNA expression promotive action test; type: cell-based, human; conditions: NHEK, 24 hours, corrected with GAPDH
Description: Normal human neonatal epidermal keratinocytes (NHEK) were precultured using normal human epidermal keratinocyte growth medium (KGM), and the cells were collected by a trypsin treatment. The collected cells were diluted with KGM to a cell density of 15×10^4 cells/mL, then seeded with 2 mL portions in a 6-well plate (30×10^4 cells/well), and cultured overnight under conditions of 37° C. and 5% CO2. After culturing, the medium was replaced with normal human epidermal keratinocyte basal medium (KBM, the above KGM without addition of growth additives (hEGF, BPE, insulin, antibacterial agents, hydrocortisone)), and culturing was further performed for 24 hours.
After culturing for 24 hours, the medium was removed, and 2 mL of each of test samples (Samples 1 and 3, see Table 20 below for final concentrations) dissolved in KBM was added to each well, and culturing was performed under conditions of 37° C. and 5% CO2 for 24 hours. As a control, culturing was performed in the same manner using KBM to which no sample was added. After culturing, the medium was removed, total RNA was extracted using ISOGEN II (available from NIPPON GENE CO., LTD.), each RNA amount was measured using a spectrophotometer, and the total RNA was prepared so as to be 150 ng/μL.
For OCLN and GAPDH as an internal standard, the expression levels of mRNA were measured using the above total RNA as a template. Detection was performed through a two-step real-time RT-PCR reaction using a real-time PCR device, Thermal Cycler Dice Real Time System III (available from Takara Bio Inc.), with PrimeScript™ RT Master Mix (Perfect Real Time) (available from Takara Bio Inc.) and TB Green® Fast qPCR Mix (available from Takara Bio Inc.). Primers available from Takara Bio Inc. were used. The expression level of OCLN mRNA was obtained as a value corrected with a value of GAPDH based on total RNA preparations prepared from cells cultured “with test sample addition” and “without sample addition.” From the obtained values, the OCLN mRNA expression promotion rate (%) was calculated using the following equation. […]

[2] = tested on: Mouse macrophage cells (RAW264.7); test: Nitric oxide (NO) production suppressive action test; type: cell-based; conditions: RAW264.7, LPS 1 μg/mL, 48 hours
Description: Mouse macrophage cells (RAW264.7) were cultured using Dulbecco's modified Eagle's medium (DMEM) containing 10% FBS, and then the cells were collected using a cell scraper. The collected cells were diluted with phenol red-free DMEM containing 10% FBS to a cell density of 3.0×10^6 cells/mL, then seeded with 100 μL per well in a 96-well plate, and cultured for 4 hours.
After culturing, the medium was removed, 100 μL of the test sample (Sample 1, see Table 26 below for final concentration) dissolved in phenol red-free DMEM containing DMSO at a final concentration of 0.5% and 10% FBS was added to each well, 100 μL of lipopolysaccharide (LPS, final concentration 1 μg/mL, E. coli 0111:B4, available from DIFCO) dissolved in phenol red-free DMEM containing 10% FBS was added, and culturing was performed for 48 hours. As a control, the LPS process was performed in the same manner using, as substitute for the test sample solution, phenol red-free DMEM containing DMSO at a final concentration of 0.5% and 10% FBS to which no sample was added.
The production amount of nitric oxide (NO) was measured using the amount of nitrite ions ([…]) as an index. After the culturing was completed, the same amount of Griess reagent (5 mass % phosphoric acid solution containing 1 mass % sulfanilamide and 0.1 mass % N-1-naphthyl ethylendiamine dihydrochloride) as the culture supernatant was added to the culture solution in each well and reacted for 10 minutes at room temperature. After the reaction, the absorbance at a wavelength of 540 nm was measured. The nitric oxide (NO) production suppression rate (%) was calculated by the following equation based on the nitric oxide (NO) production amount when no sample was added (control).
Terms in the equation represent the following respective ones. • A: NO amount with test sample addition • B: NO amount […]

[3] = tested on: Normal human dermal fibroblasts (NB1RGB); test: Hyaluronic acid production promotive action test; type: cell-based; conditions: 3 days, A/B×100 vs no sample
Description: Normal human dermal fibroblasts (NB1RGB) were cultured using Dulbecco's modified Eagle's medium (DMEM) containing 10% FBS, and then the cells were collected by a trypsin treatment. The collected cells were diluted with DMEM containing 0.25% FBS to a cell density of 1.6×10^5 cells/mL, then seeded with 100 μL per well in a 96-well plate, and cultured overnight.
After the culturing was completed, 100 μL of each of test samples (Samples 1 and 2, see Table 9 below for final concentrations) dissolved in DMEM containing 0.25% FBS was added to each well, and culturing was performed for 3 days. As a control, culturing was performed in the same manner using DMEM containing 0.25% FBS to which no sample was added. After the culturing was completed, the amount of hyaluronic acid in the medium of each well was measured by a sandwich method using hyaluronic acid binding protein (HABP). From the obtained results, the hyaluronic acid production promotion rate (%) was calculated using the following equation.
Hyaluronic acid production promotion rate (%)=A/B×100
Terms in the equation represent the following respective ones. • A: Hyaluronic acid amount with test sample addition • B: Hyaluronic acid amount without sample addition

Structure (SMILES)	OCLN mRNA expression promotion rate ([1]; 25 μmol/L) [%]	NO production suppression rate ([2]; 31.2 μmol/L) [%]	NO production suppression rate ([2]; 125 μmol/L) [%]	NO production suppression rate ([2]; 500 μmol/L) [%]	OCLN mRNA expression promotion rate ([1]; 100 μmol/L) [%]	Hyaluronic acid production promotion rate ([3]; 25 μmol/L) [%]	Hyaluronic acid production promotion rate ([3]; 50 μmol/L) [%]	Hyaluronic acid production promotion rate ([3]; 100 μmol/L) [%]	Hyaluronic acid production promotion rate ([3]; 200 μmol/L) [%]
O=C(O)CCc1ccccc1 [Sample 3, 3-phenylpropionic acid]	141.5								
O=C(O)CCc1ccc(O)c(O)c1 [Sample 1, 3,4-Dihydroxyhydrocinnamic acid]	209.9	14.9	49.4	77.8	557.3	124.2			
O=C(O)CCc1ccc(O)cc1 [Sample 2, 3-(4-Hydroxyphenyl)propionic acid]							121.8	119.3	111.7
